In patent US20190015379A1, “USE OF DIANHYDROGALACTITOL AND ANALOGS AND DERIVATIVES THEREOF, TOGETHER WITH RADIATION, TO TREAT NON-SMALL-CELL CARCINOMA OF THE LUNG AND GLIOBLASTOMA MULTIFORME AND SUPPRESS PROLIFERATION OF CANCER STEM CELLS” (DelMar Pharmaceuticals, Inc., priority 2014, published 2019):

Columns and labels:
GBM = settings: GBM; Eagan (1979), Stupp (2005); cited from earlier work
[1] = test system: A549 human lung adenocarcinoma xenograft tumors; assay: A549 NSCLC xenograft tumor growth in Rag2 mice; format: in vivo, female Rag2 mice
Method: The purpose of the study reported in this Example is to evaluate the activity of dianhydrogalactitol in in vivo models of drug-resistant NSCLC in comparison to other drugs, including cisplatin. Rag2 mice bearing subcutaneous human lung adenocarcinoma xenograft tumors of either TKI-resistant (H1975) or TKI-sensitive (A549) origin were treated.
Two human NSCLC cell lines, A549 (TKI-sensitive) and H1975 (TKI-resistant), were used as xenograft tumor models in female Rag2 mice. The mice were 6 to 8 weeks of age and weighed 18-23 grams. 10 mice were used per group.
Cisplatin was used in normal saline at a dose of 5 mg/kg. Administration was intravenous.
Dianhydrogalactitol was used in 0.9% sodium chloride for injection at 1.5 mg/kg to 6 mg/kg. Administration was intraperitoneal.
Treatment was initiated at a tumor volume of 100 mm^3 to 150 mm^3.
On day 0, tumor cells were implanted subcutaneously into mice in a volume of 50 μL in Matrigel™ using a 28-gauge needle; injection of the tumor cells was in the back of the mice. Mice were randomly assigned to groups based on tumor volume.
(§1) Tumor growth was monitored by measuring tumor dimensions with calipers beginning on the first day of treatment. Tumor length and width measurements were obtained each Monday, Wednesday, and Friday. Tumor volumes were calculated according to the equation L×W^2/2 with the length (in mm) being defined as the longer axis of the tumor. Animals were weighed at the time of tumor measurement. Tumors were allowed to grow to a maximum of 800 mm^3 before termination.

[2] = Tolerability in A549 tumor-bearing Rag2 mice (body weight, CBC, clinical observations)
Method: as §1
All animals had blood collected by cardiac puncture at termination for CBC (complete blood count) with differentiation.
In particular, signs of ill-health were based on body weight loss, change in appetite, and behavioral signs such as altered gait, lethargy, and gross manifestations of stress. If signs of severe toxicity or tumor-related illness were seen, the animals were terminated by isoflurane overdose followed by CO2 asphyxiation, and a necropsy was performed to assess other signs of toxicity. The following organs were examined: liver, gall bladder, spleen, lung, kidney, heart, intestine, lymph nodes, and bladder. Any unusual findings were noted.

[3] = Mischler et al. 1979; cited from earlier work
[4] = GBM chemotherapy, historical data; cited from earlier work
[5] = cisplatin 5 mg/kg Q7D x 3 i.v. (group 2)

O=NN(CCCl)C(=O)NCCCl [Carmustine, carmustine, reference compound]
Median O.S. (XRT + Chemo) (GBM): 40-50 weeks

N.N.[Cl][Pt][Cl] [cisplatin, reference compound]
day on which a mean tumor volume of 400 mm^3 was reached [1, 5]: 66 days | number of animals remaining on study on day 70 [1, 5]: 6/10 | tumor doubling time [1, 5]: 17 | day on which a mean tumor volume of 200 mm^3 was observed ([1]; cisplatin 5 mg/kg Q7D x 3 i.v. (group 2), days post-inoculation): 49 days | tumor growth delay compared to untreated controls ([1]; cisplatin 5 mg/kg i.v. (positive control)): 4 days | body weight loss ([2]; cisplatin 5 mg/kg (group 2)): body weight loss was observed | tolerability of the dosage ([2]; cisplatin 5 mg/kg, 1 mouse unable to receive the last dose): may also be near the MTD

O[C@H]([C@H](O)[C@@H](O)CBr)[C@H](O)CBr [dibromodulcitol]
absorption by the oral route [3]: rapid and fairly complete

Cn1nnc2c(C(N)=O)ncn2c1=O [temozolomide, reference compound]
DLT [4]: Hematologic | Nadir [4]: 21 to 28 days | Recovery [4]: Within 14 days
